Molecular target: T1, Serine/threonine-protein kinase Chk1 (Homo sapiens, UniProt O14757)
T1 sequence (O14757 whole entry): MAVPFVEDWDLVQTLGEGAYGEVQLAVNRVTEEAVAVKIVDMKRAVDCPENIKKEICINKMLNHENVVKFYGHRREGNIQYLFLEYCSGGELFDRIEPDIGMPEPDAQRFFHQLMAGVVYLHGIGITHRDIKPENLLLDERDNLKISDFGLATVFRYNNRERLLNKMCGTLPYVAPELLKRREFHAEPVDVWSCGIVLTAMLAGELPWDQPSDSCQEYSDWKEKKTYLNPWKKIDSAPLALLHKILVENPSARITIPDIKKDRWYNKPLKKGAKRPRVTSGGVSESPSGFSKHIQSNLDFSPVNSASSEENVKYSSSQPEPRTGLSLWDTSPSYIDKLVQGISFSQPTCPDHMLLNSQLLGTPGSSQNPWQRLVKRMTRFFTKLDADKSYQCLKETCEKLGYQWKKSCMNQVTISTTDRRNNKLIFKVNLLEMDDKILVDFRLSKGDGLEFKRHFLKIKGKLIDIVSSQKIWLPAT
Description: Competitive inhibition of human CHK1 using ATP as substrate by DELFIA

Row | SMILES | IC50
1 | N#Cc1cccc(-c2c[nH]c3ncnc(N4CCOC(CN)C4)c23)c1 (configuration not stated) | 3.2 µM
2 | NCCCNc1ncnc2[nH]c3cnccc3c12 | 1.7 µM
3 | NC1CCN(c2ncnc3[nH]c4cnccc4c23)CC1 | 0.67 µM
4 | NCC1CCN(c2ncnc3[nH]c4cnccc4c23)CC1 | 0.29 µM
5 | c1cncc(Nc2cc(NCC3CCNCC3)ncn2)c1 | 122 µM
6 | NCC1CCN(c2cc(Nc3cnccn3)ncn2)CC1 | 22 µM
7 | N#Cc1cnc(Nc2cc(NCC3CCOCC3)ncn2)cn1 | 20 µM

From ChEMBL document CHEMBL1926634, “Structure-guided evolution of potent and selective CHK1 inhibitors through scaffold morphing” (J Med Chem, 2011)
